# Measured values published in article PMC7435865, “Antinociceptive and Cytotoxic Activity of Opioid Peptides with Hydrazone and Hydrazide Moieties at the C-Terminus” (Molecules, 2020).
# Where a SMILES comes first, the peptide text is derived from it. [ ]: non-standard residue; d: D form. The star is where a group is joined. X4 = O=C(NN*)c1cc(C(F)(F)F)cc(C(F)(F)F)c1; X3 = FC(F)(F)c1cc(C=NN*)cc(C(F)(F)F)c1
# Key:
# µ opioid receptor (MOR) = molecular target: T1, µ opioid receptor (MOR) (Rattus norvegicus, UniProt P33535); assay: competitive radioligand binding, [3H]DAMGO displacement in rat brain homogenate
# T1 construct: from tissue; host or cells: rat brain (membrane fractions of homogenate)
# Procedure: (§1) The synthesized compounds were assayed for binding affinity to the μ- and δ-opioid (MOR and DOR, respectively), as well as to the neurokinin-1 receptors (NK1R). The determinations were performed in rat brain homogenates by competitive displacement of selective radioligands. The results are shown in Table 2 as the half-maximal inhibitory concentration (IC50) with the standard error of the mean (SEM).
# (§2) The binding affinity of compounds 1b–6a for MOR, DOR, and NK1R was determined in competitive radioligand binding assays according to the method previously described. The specific radioligands were [^3H]DAMGO (DAMGO, [Tyr^1-3,5-^3H])), [^3H][Ile^5,6]DELT II ([Ile^5,6]Deltorphin II, [Tyr^l-3,5-^3H]) and [^3H]Substance P (Substance P, [Leu-3,4,5-^3H]), for experiments with MOR, DOR, and NK1R, respectively. The first two were obtained from Isotope Laboratory, Biological Research Centre, Institute of Biochemistry (Szeged, Hungary), whereas the latter was purchased from Perkin Elmer (Perkin Elmer Inc., Krakow, Poland). Membrane fractions of rat brain homogenate were incubated at 25 °C for 60 min in the presence of radioligands (0.5 nM) specific for each receptor and increasing concentrations of the tested compounds. To measure non-specific binding, 10 μM naloxone was used as the competitor for opioid receptors and 10 μM cold Substance P was used for NK1R. The reactions were carried out in assay buffer containing Tris-HCl (pH 7.4) with an addition of bovine serum albumin (BSA) and protease inhibitors (bacitracin, bestatin, captopril). After the incubation, the binding reactions were terminated by rapid filtration with M-24 Cell Harvester (Brandel/USA) through GF/B Whatman glass fiber strips (presoaked with 0.5% PEI in order to minimize non-specific binding). Radioactivity retained on the filters was measured in MicroBeta LS on a Trilux scintillation counter (PerkinElmer, Santa Clara, CA, USA). The experiments were repeated at least two times in duplicate. The IC50 value for each compound was determined using GraphPad Prism.
# δ opioid receptor (DOR) = molecular target: T2, δ opioid receptor (DOR) (Rattus norvegicus, UniProt P33533); assay: competitive radioligand binding, [3H][Ile5,6]Deltorphin II displacement in rat brain homogenate; settings: for DOR binding (in words): rat brain homogenate
# T2 construct: from tissue; host or cells: rat brain (membrane fractions of homogenate)
# Procedure: as §1, §2
# [1] = molecular target: T3, neurokinin-1 receptor (NK1R) (Rattus norvegicus, UniProt P14600); assay: competitive radioligand binding, [3H]Substance P displacement in rat brain homogenate
# T3 construct: from tissue; host or cells: rat brain (membrane fractions of homogenate)
# Procedure: as §1, §2
# [2] = tested on: MeW155 human melanoma cells; assay: melanoma cell number in culture after incubation with compound; assay type: cell-based; settings: 50 µM, 96 h incubation
# Procedure: The determination was performed by counting the cells of the MeW155 cell line after incubating them with 50 µM of the tested compounds.
# The cells were plated in 24-well plates (5000 cells per well) and incubated for 24 h in Eagle’s medium containing 10% fetal bovine serum and 1% solution of penicillin and streptomycin. […] Control cells were treated with 1% DMSO only. After 96 h of incubation, the cell suspension was first lysed in lysis buffer (ReagentA, ChemoMetec A/S) and then stabilized in stabilization buffer (ReagentB, ChemoMetec A/S). The number of […] was quantified in a propidium iodide cassette with the use of a NucleoCounter® NC-100™ (ChemoMetec A/S) cell counter. The tests were performed in triplicate. The results were normalized so that the values obtained for the control were 100%.
# MOR = settings: cited from earlier work
# male Wistar rats = assay: tail flick test after intrathecal administration; assay type: in vivo, rat; settings: 0.5 nmol/rat i.t.
# Procedure: Analgesic activity of compounds 1b–1d was measured in the tail flick test after intrathecal administration to rats, according to a procedure thoroughly described before. First, adult male Wistar rats weighing 200–250 g were prepared for intrathecal administration by the catherization method described previously by Yaksh and Rudy. Each experimental group consisted of 4–8 rats. Next, spinally mediated analgesia was assessed in the tail flick test utilizing the Plantar Test and Tail Flick Analgesia Meter apparatus (IITC Life Science Inc., Los Angeles, CA, USA). Withdrawal latency was measured in triplicate. The cut-off latencies were set at 7 s to avoid burns. The measurements were performed before the administration of the tested compound (time 0) and 5, 15, 30, 60, and 120 min after injection. The control group received injections of 0.9% NaCl. Data from in vivo studies are presented as means ± SEM and were analyzed using two-way repeated measures of ANOVA followed by Dunnett-corrected multiple comparisons. Significance was defined as * p < 0.033, ** p < 0.002, *** p < 0.001. Data were analyzed using GraphPad Prism. The responses were expressed as a percentage of a maximum possible effect (%MPE), calculated as ((T1 − T0)/(T2 − T0)) × 100, where T0 and T1 are latencies before and after drug injection, respectively, and T2 is the cut-off time. All experimental procedures were approved by The Local Committee for Ethics in Animal Experiments, permission no. 46/2013.
# T2 sequence (P33533 whole entry): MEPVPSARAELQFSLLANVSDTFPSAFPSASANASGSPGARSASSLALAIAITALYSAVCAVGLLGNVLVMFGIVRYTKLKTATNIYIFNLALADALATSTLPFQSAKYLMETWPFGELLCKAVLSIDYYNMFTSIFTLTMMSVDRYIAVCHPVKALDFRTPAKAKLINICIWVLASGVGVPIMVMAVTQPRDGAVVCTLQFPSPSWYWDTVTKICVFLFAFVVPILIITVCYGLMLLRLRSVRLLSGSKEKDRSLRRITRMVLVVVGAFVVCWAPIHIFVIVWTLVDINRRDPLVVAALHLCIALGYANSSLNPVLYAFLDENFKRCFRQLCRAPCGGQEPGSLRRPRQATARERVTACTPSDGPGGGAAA
# T1 sequence (P33535 whole entry): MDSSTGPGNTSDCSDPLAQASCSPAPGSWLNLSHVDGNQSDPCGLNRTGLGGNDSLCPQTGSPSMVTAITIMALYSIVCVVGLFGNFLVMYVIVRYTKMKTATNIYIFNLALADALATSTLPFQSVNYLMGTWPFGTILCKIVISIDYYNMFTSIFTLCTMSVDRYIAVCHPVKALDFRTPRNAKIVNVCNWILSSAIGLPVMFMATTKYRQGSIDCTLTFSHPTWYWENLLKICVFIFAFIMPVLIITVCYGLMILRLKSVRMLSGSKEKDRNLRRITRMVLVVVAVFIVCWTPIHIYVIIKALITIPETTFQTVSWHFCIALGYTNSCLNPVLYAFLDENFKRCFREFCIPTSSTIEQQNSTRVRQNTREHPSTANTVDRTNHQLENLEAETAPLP
# T3 sequence (P14600 whole entry): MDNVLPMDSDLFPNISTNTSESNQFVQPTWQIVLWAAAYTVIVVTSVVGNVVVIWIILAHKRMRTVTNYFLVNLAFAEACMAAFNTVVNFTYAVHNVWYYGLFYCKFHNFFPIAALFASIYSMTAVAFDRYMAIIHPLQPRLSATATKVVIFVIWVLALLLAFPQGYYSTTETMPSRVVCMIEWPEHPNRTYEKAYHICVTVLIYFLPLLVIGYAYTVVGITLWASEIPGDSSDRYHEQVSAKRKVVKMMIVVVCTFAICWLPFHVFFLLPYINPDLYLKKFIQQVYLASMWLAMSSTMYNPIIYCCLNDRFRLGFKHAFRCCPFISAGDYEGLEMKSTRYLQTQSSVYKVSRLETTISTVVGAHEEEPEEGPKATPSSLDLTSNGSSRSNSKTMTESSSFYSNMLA
Compound,IC50 (µ opioid receptor (MOR)),IC50 (δ opioid receptor (DOR)),IC50 [1],effect on number of melanoma cells (in words) [2],IC50 (MOR),DOR binding (in words) (δ opioid receptor (DOR)),also measured
"C[C@@H](NC(=O)[C@@H](N)Cc1ccc(O)cc1)C(=O)NCC(=O)N[C@@H](Cc1c[nH]c2ccccc12)C(=O)NNC(=O)c1cc(C(F)(F)F)cc(C(F)(F)F)c1 [2b, H-Tyr-D-Ala-Gly-Trp-NH-NH-C(=O)-3,5-(CF3)2Ph] (H-Y[dA]GW-X4)",93.5 ± 32.8 nM,467 ± 36.9 nM,> 1000 nM,no effect,–,–,–
H-Tyr-D-Ala-Trp-Cyn,–,–,–,–,77.6 nM,–,–
H-Tyr-[dA]-Trp-OH,–,–,–,–,977 nM,–,–
H2N-Tyr-D-Ala-Gly-Phe-NH-NH←Phe←Gly←D-Ala←Tyr-NH2 [biphalin],–,–,–,–,1.4 nM,–,–
"C[C@@H](NC(=O)[C@@H](N)Cc1ccc(O)cc1)C(=O)NCC(=O)N[C@@H](Cc1ccccc1)C(=O)NNC(=O)c1cc(C(F)(F)F)cc(C(F)(F)F)c1 [1b, H-Tyr-D-Ala-Gly-Phe-NH-NH-C(=O)-3,5-(CF3)2Ph]",111 ± 12.7 nM,413 ± 105 nM,> 1000 nM,no effect,–,–,"area under the time course curve (AUC) of analgesic effect (male Wistar rats): 3421 ± 673 units; antinociceptive effect, % of maximal possible effect (male Wistar rats; 15 min after injection): 65 ± 6 % MPE"
"C[C@@H](NC(=O)[C@@H](N)Cc1ccc(O)cc1)C(=O)N[C@@H](Cc1ccccc1)C(=O)N[C@@H](Cc1ccccc1)C(=O)NN=Cc1cc(C(F)(F)F)cc(C(F)(F)F)c1 [3a, H-Tyr-D-Ala-Phe-Phe-NH-N=CH-3,5-(CF3)2Ph] (H-Y[dA]FF-X3)",90.4 ± 9.91 nM,> 1000 nM,723 ± 58.2 nM,significantly decrease the number of melanoma cells,–,do not exhibit any appreciable DOR binding,"number of MeW155 cells, % of the control value [2]: ~ 2 % of the control"
"C[C@@H](NC(=O)[C@@H](N)Cc1ccc(O)cc1)C(=O)N[C@@H](Cc1ccccc1)C(=O)N[C@@H](Cc1ccccc1)C(=O)NNC(=O)c1cc(C(F)(F)F)cc(C(F)(F)F)c1 [3b, H-Tyr-D-Ala-Phe-Phe-NH-NH-C(=O)-3,5-(CF3)2Ph] (H-Y[dA]FF-X4)",391 ± 57.9 nM,> 1000 nM,> 1000 nM,no effect,–,do not exhibit any appreciable DOR binding,–
"N[C@@H](Cc1ccc(O)cc1)C(=O)N1CCC[C@H]1C(=O)N[C@@H](Cc1ccccc1)C(=O)NN=Cc1cc(C(F)(F)F)cc(C(F)(F)F)c1 [6a, H-Tyr-Pro-Phe-NH-N=CH-3,5-(CF3)2Ph]",113 ± 7 nM,> 1000 nM,> 1000 nM,significantly decrease the number of melanoma cells,–,do not exhibit any appreciable DOR binding,"number of MeW155 cells, % of the control value [2]: 53 ± 3 % of the control"
H-Y[dA]GW-NH2,–,–,–,–,–,–,times weaker as a MOR binder than the [Phe4]-variant (MOR; versus H-Tyr-D-Ala-Gly-Phe-NH2): about 2 times
Tyr-Pro-Phe-Phe-NH2 [endomorphin-2],–,–,–,–,3.9 nM,–,–
